Values quoted from earlier work, collected in US20150182553A1, “USE OF POLYMER D-LACTIC ACID (PDLA) TO TREAT MALARIA” (priority 2013, published 2015).

Legend:
[1] = test system: mitochondrial respiration of L-lactate; conditions: brain and heart
[2] = metabolite of PDLA

C[C@@H](O)C(=O)O [D-lactic acid]
effect on mitochondrial respiration of L-lactate [1]: block mitochondrial respiration of L-lactate in the brain and heart | average plasma concentration that may be related to reversible symptoms of altered mental status, dysarthria, and ataxia [2]: 7.98 mM
